Here are results for 26 compounds from US20190031599A1, “INDANE DERIVATIVES AS MGLUR7 MODULATORS” (Takeda Pharmaceutical Company Limited, priority 2016, published 2019).

Structures can show the parent of a compound that is named as a salt.

T1 sequence (Q14831 35-915): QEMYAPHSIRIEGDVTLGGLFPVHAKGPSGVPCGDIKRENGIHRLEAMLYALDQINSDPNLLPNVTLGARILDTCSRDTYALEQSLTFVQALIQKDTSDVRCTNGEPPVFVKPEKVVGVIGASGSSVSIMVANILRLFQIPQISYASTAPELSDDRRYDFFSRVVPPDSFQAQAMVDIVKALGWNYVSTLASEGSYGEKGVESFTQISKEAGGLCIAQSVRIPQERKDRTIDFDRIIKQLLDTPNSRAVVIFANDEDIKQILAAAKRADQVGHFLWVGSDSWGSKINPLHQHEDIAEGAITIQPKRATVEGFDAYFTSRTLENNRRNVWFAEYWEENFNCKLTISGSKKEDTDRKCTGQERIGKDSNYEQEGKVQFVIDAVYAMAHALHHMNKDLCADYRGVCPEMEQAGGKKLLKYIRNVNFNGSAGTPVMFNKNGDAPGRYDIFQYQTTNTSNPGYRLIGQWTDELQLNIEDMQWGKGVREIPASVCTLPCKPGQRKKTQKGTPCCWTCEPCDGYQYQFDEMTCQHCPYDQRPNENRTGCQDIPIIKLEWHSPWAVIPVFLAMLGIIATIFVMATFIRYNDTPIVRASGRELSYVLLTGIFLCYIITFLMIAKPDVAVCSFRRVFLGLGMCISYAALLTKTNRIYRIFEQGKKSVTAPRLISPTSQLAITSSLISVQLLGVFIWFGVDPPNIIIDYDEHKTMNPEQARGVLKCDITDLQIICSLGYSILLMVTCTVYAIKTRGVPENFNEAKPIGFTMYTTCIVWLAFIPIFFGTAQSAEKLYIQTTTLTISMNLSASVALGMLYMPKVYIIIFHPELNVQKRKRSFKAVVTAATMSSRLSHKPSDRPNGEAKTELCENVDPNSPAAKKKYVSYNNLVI

The assay addresses T1, human mGluR7 (Homo sapiens, UniProt Q14831).
T1 construct: expressed in transfected cells
Description: mGluR7 assay: CRE-directed luciferase reporter gene assay, reduction of forskolin stimulated cAMP production. Type of assay: cell-based. As to conditions: stable CHO cell line expressing the CRE-luc reporter and human mGluR7 genes; decrease of forskolin stimulated luminescence; 10-point concentration-response, duplicate wells. As to the method:
The ability of the test compounds to activate mGluR7 was determined by their ability to reduce forskolin stimulated cAMP production. Compounds were assessed in a CRE-directed luciferase reporter gene assay, using a stable CHO cell line expressing the CRE-luc reporter and human mGluR7 genes. In this cell line, production of cAMP stimulated the transcription of the luciferase gene and luciferase activity was then measured in a luminescent enzyme assay (Steady Glo assay; Promega E2550). Activation of mGluR7 decreased the forskolin stimulated luminescence signal.
The day prior to the assay, compounds were serially diluted in DMSO (100× final assay concentration (FAC)), in 384-well plates which were then stored in the dark at room temperature (RT) until use. Cells were seeded at 12.5 k/well in white, clear bottom 384-well plates (Corning 3707) and left for one hour at RT followed by an overnight incubation (37° C.). The following day, the DMSO compound plate was diluted 1:20 (5× FAC) in Opti-MEM I (Life Technologies 11058021). The growth media was removed from the cell plate and replaced with 15 μl Opti-MEM I, followed by a 5 μl addition from the 5× compound plate and a fifteen minute incubation (37° C.). Forskolin (Sigma F3917) was then added to the wells (5 μl of 2.5 μM) and the plate was incubated for five hours (37° C.). During this incubation, the Steady Glo Substrate reagent was warmed to 37° C. Aliquots (11 ml; stored at −20° C.) of this reagent were prepared by dissolving the contents of 1 vial of lyophilised substrate in 100 ml Steady-Glo buffer. A 25 μl addition of the substrate was made to all wells and the plate was incubated for thirty minutes at RT, on a plate shaker (300 rpm; in the dark). Luminescence was then measured using the EnVision Multilabel Reader (Perkin Elmer).
Compound activity was examined using a 10-point, half log concentration-response range and each concentration was tested in duplicate wells. Luminescence values were normalised to ‘maximum’ (forskolin alone) and ‘minimum’ (forskolin in the presence of tool mGluR7 agonist) controls.
In general terms: In a reporter assay the amount or activity of a reporter protein is the signal.
`C[C@H](C(=O)NC1Cc2ccccc2C1N1CCCC1)c1ccccc1` (mixture of isomers) [Example 78, (2S)-2-phenyl-N-(trans)-[1-(pyrrolidin-1-yl)-2,3-dihydro-1H-inden-2-yl]propanamide]: the EC50 (as a rule, the concentration that produces a half-maximal response) stood at 322 nM.

`C[C@H](C(=O)NC1Cc2ccccc2C1O)c1ccc(F)cc1` (single isomer, unassigned) [Example 62] yielded an EC50 of 704 nM.

Compound `CC(=O)N[C@H]1c2ccccc2C[C@@H]1NC(=O)[C@@H](C)c1ccccc1` [Example 13, (2S)—N-[(1S,2S)-1-acetamido-2,3-dihydro-1H-inden-2-yl]-2-phenylpropanamide] gave an EC50 of 1200 nM.

For `C[C@H](C(=O)N[C@@H]1Cc2ccccc2[C@H]1N)c1ccc(F)cc1F` [Example 35, (2S)—N-[(1R,2R)-1-amino-2,3-dihydro-1H-inden-2-yl]-2-(2,4-difluorophenyl)propanamide], the half-maximal effective concentration (EC50) amounted to 233 nM.

Regarding `CN[C@H]1c2ccccc2C[C@@H]1NC(=O)[C@@H](C)c1ccccc1` [Example 22, (2S)—N-[(1S,2S)-1-(methylamino)-2,3-dihydro-1H-inden-2-yl]-2-phenylpropanamide], the 50% effective concentration (EC50) amounted to 70 nM. This EC50 lies about 3.3-fold lower than the previous one.

Regarding `COC1c2ccccc2C[C@@H]1NC(=O)[C@@H](NS(=O)(=O)c1c(C)noc1C)c1ccc(F)cc1` (stereo partly drawn) [Example 83, (2S)-2-(3,5-dimethyl-1,2-isoxazole-4-sulfonamido)-2-(4-fluorophenyl)-N-((trans)-1-methoxy-2,3-dihydro-1H-inden-2-yl)acetamide], a half-maximal effect (EC50) was put at 26 nM.

Consider `C[C@H](C(=O)N[C@@H]1Cc2ccccc2[C@H]1N)c1ccccc1` [Example 12, (2S)—N-[(1R,2R)-1-amino-2,3-dihydro-1H-inden-2-yl]-2-phenylpropanamide], for which the EC50 amounted to 290 nM.

Consider `CCO[C@@H]1c2ccccc2C[C@H]1NC(=O)[C@@H](NCc1csc(C)n1)c1ccc(F)cc1` (mixture of isomers) [Example 60, (2S)—N-(trans)-(1-ethoxy-2,3-dihydro-1H-inden-2-yl)-2-(4-fluorophenyl)-2-{[(2-methyl-1,3-thiazol-4-yl)methyl]amino}acetamide], for which it took 3 nM to reach a half-maximal effect (EC50).

`COC1c2ccccc2CC1NC(=O)C(c1ccc(F)cc1)N1CC(F)C1` (single isomer, unassigned) [Example 140, 2-(4-fluorophenyl)-2-(3-fluoroazetidin-1-yl)-N-(trans)-(1-methoxy-2,3-dihydro-1H-inden-2-yl)acetamide] showed an EC50 of 1270 nM.

With `N[C@H]1c2ccccc2C[C@@H]1NC(=O)C(c1ccc(F)cc1F)N1CC(F)(F)C1` (stereo partly drawn) [Example 103, N-[(1S,2S)-1-amino-2,3-dihydro-1H-inden-2-yl]-2-(3,3-difluoroazetidin-1-yl)-2-(2,4-difluorophenyl)acetamide formate], a half-maximal effect (EC50) was put at 218 nM.

Compound `CC1c2ccccc2CC1NC(=O)[C@@H](NS(C)(=O)=O)c1ccc(F)cc1` (stereo in doubt) [Example 85, (2S)-2-(4-fluorophenyl)-2-methanesulfonamido-N-((trans)-1-methyl-2,3-dihydro-1H-inden-2-yl)acetamide] came in with an EC50 of 26 nM.

In turn, `CCC(C(=O)N[C@H]1Cc2ccccc2[C@@H]1N)c1ccc(F)cc1F` (single isomer, unassigned) [Example 16] had an EC50 of 747 nM.

For the compound `COC1c2ccccc2CC1NC(=O)[C@@H](C)c1ccc(F)cc1F` (single isomer, unassigned) [Example 26], the EC50 was 64 nM.

`COC1c2ccccc2CC1NC(=O)[C@@H](C)c1ccccc1` (mixture of isomers) [Example 7, (2S)—N-((trans)-1-methoxy-2,3-dihydro-1H-inden-2-yl)-2-phenylpropanamide] displayed an EC50 of 29 nM.

Compound `CC(F)(C(=O)N[C@H]1Cc2ccccc2[C@@H]1N)c1ccc(F)cc1` (stereo partly drawn) [Example 75, N-[(1S,2S)-1-amino-2,3-dihydro-1H-inden-2-yl]-2-fluoro-2-(4-fluorophenyl)propanamide] displayed a half-maximal effective concentration (EC50) of 320 nM.

`CN[C@H]1c2ccccc2C[C@@H]1NC(=O)[C@H](C)c1ccc(F)cc1` [Example 157, (2R)-2-(4-fluorophenyl)-N-[(1S,2S)-1-(methylamino)-2,3-dihydro-1H-inden-2-yl]propanamide] yielded an EC50 of 1380 nM.

Turning to `CC[C@H](C(=O)NC1Cc2ccccc2C1OC)c1ccc(F)cc1` (mixture of isomers) [Example 44, (2S)-2-(4-fluorophenyl)-N-((trans)-1-methoxy-2,3-dihydro-1H-inden-2-yl)butanamide], the EC50 is 9 nM. This EC50 lies about 150-fold lower than the previous one.

On to `C[C@H](C(=O)NC1Cc2ccccc2C1O)c1ccccc1` (mixture of isomers) [Example 2, (2S)—N-((trans)-1-hydroxy-2,3-dihydro-1H-inden-2-yl)-2-phenylpropanamide], for which the EC50 turned out to be 107 nM.

As for `CC(C)(C)OC(=O)N[C@H]1c2ccccc2C[C@@H]1NC(=O)C(C)(C)c1ccc(F)cc1` [Example 87, tert-butyl N-[(1S,2S)-2-[2-(4-fluorophenyl)-2-methylpropanamido]-2,3-dihydro-1H-inden-1-yl]carbamate], the concentration giving a half-maximal response (EC50) was 582 nM.

`COC1CN(C(C(=O)N[C@H]2Cc3ccccc3[C@@H]2N)c2ccc(F)cc2F)C1` (stereo partly drawn) [Example 111, N-[(1S,2S)-1-amino-2,3-dihydro-1H-inden-2-yl]-2-(2,4-difluorophenyl)-2-(3-methoxyazetidin-1-yl)acetamide] came in with an EC50 of 135 nM. This EC50 is about 4.3-fold lower than that of the compound before.

For the compound `COC1c2ccccc2CC1NC(=O)C(c1ccc(F)cc1)n1ncccc1=O` (single isomer, unassigned) [Example 131, 2-(4-fluorophenyl)-N-(trans)-(1-methoxy-2,3-dihydro-1H-inden-2-yl)-2-(6-oxo-1,6-dihydropyridazin-1-yl)acetamide], the half-maximal effective concentration (EC50) turned out to be 89 nM. Against the preceding compound, the EC50 is about 1.5-fold lower.

`COC1c2ccccc2CC1NC(=O)C(c1ccc(F)cc1F)N1CC(F)C1` (single isomer, unassigned) [Example 139, 2-(2,4-difluorophenyl)-2-(3-fluoroazetidin-1-yl)-N-(trans)-(1-methoxy-2,3-dihydro-1H-inden-2-yl)acetamide] registered an EC50 of 61 nM.

In the case of `COC1c2ccccc2CC1NC(=O)C(c1ccc(F)cc1)n1ncccc1=O` (single isomer, unassigned) [Example 128, 2-(4-fluorophenyl)-N-(trans)-(1-methoxy-2,3-dihydro-1H-inden-2-yl)-2-(6-oxo-1,6-dihydropyridazin-1-yl)acetamide], a half-maximal response (EC50) required 1320 nM.

For the compound `COC1c2ccccc2CC1NC(=O)C(c1ccc(F)cc1)n1ncccc1=O` (single isomer, unassigned) [Example 130, 2-(4-fluorophenyl)-N-(trans)-(1-methoxy-2,3-dihydro-1H-inden-2-yl)-2-(6-oxo-1,6-dihydropyridazin-1-yl)acetamide], a half-maximal response (EC50) required 148 nM.

`COC1c2ccccc2CC1NC(=O)C(c1ccc(F)cc1)N1CC(F)C1` (single isomer, unassigned) [Example 142, 2-(4-fluorophenyl)-2-(3-fluoroazetidin-1-yl)-N-(trans)-(1-methoxy-2,3-dihydro-1H-inden-2-yl)acetamide]: the EC50 is 62 nM.

`COC1c2ccccc2CC1NC(=O)C(c1ccc(F)cc1F)n1ncccc1=O` (single isomer, unassigned) [Example 124, 2-(2,4-difluorophenyl)-N-(trans)-(1-methoxy-2,3-dihydro-1H-inden-2-yl)-2-(6-oxo-1,6-dihydropyridazin-1-yl)acetamide] registered an EC50 of 1050 nM.
